Test results taken from article PMC5131915, “Platinum(II) Iodido Complexes of 7-Azaindoles with Significant Antiproliferative Effects: An Old Story Revisited with Unexpected Outcomes” (PLoS ONE, 2016).

Assays:
[1] = system: cisplatin-sensitive HCT116 colon cancer cell line; design: method as in PMID 26226326; details: cited from earlier work
[2] = system: cisplatin-resistant HCT116 colon cancer cell line; design: method as in PMID 26226326; details: cited from earlier work
[3] = system: Caco-2 colorectal carcinoma cells; assay: In vitro cytotoxicity testing (MTT assay), Caco-2; assay type: cell-based, human; details: for IC50: 24 h drug exposure, no recovery, MTT, read-out: IC50±SD, Caco-2; for selectivity factor IC50(Hep)/IC50(cancer cell line): Caco-2
Method: All cell lines were grown as adherent monolayers at 37°C and 5% CO2 in a humidified atmosphere.
The MTT assay was used to determine the cell viability; MTT = 3-(4,5-dimethylthiazol-2-yl)-2,5-diphenyltetrazolium bromide. A concentration of the formed dye was evaluated spectrophotometrically at 540 nm (TECAN, Schoeller Instruments LLC).
The data were expressed as the percentage of viability, where 100% and 0% represents the treatments with negative and positive controls, respectively. The data from the cancer cells were acquired from three independent experiments (conducted in triplicate) using cells from different passages. The resulting IC50 values (μM) were calculated from viability curves and the results are presented as arithmetic mean±SD.

[4] = Hydrophobicity studies (logP determination), octanol/water, ICP-MS; assay type: physicochemical; details: octanol/water (0.2 M KI)
Method: Complexes 4 and 6 (1 mmol) were ultrasonicated for 15 min in 10 mL of OSW, centrifuged and supernatants were collected. Aliquots (5 mL) of the obtained OSW solutions of complexes 4 and 6 were added to WSO (5 mL) and shaken for 2 h at ambient temperature. After that, the mixtures were centrifuged and aqueous layer was separated carefully. The platinum concentration was determined from OSW aliquots taken before ([Pt]OSWb) and after ([Pt]OSWa) partition by ICP-MS (ICP-MS spectrometer 7700x, Agilent) with the obtained values corrected for the adsorption effects. logP = log([Pt]WSO/[Pt]OSWa) equation was used for the partition coefficients calculation; [Pt]WSO = [Pt]OSWb−[Pt]OSWa. The experiments were conducted in triplicate.

p53 = assay: Ex vivo Western blot of tumour tissues, p53; assay type: in vivo, mice; details: pooled tumour samples
Method: (§1) Frozen tumour samples were homogenized by a bench blender IKA DI25 (IKA-Werke, Germany) in the presence of a lysis buffer [cOmplete Protease Inhibitor Cocktail (Roche, Germany), 50 mM Tris-HCl pH 7.5, 1 mM EGTA, 1 mM EDTA, 1 mM sodium orthovanadate, 50 mM sodium fluoride, 5 mM sodium pyrophosphate, 270 mM sucrose, 0.5% (v/v) Triton X-100]. Subsequently, the blended samples were centrifuged at 9.000 g at 4°C for 15 min. The supernatants were collected and the protein concentration was measured by the Brandford’s method using the Brandford reagent (Amresco, USA) according to the manufacturer’s manual. The measured samples were stored at -80°C for the following experiments.
(§2) The expression of caspase 3, MCL-1, p53, and β-actin as loading control were evaluated by Western blot analysis and immunodetection. Lysates were mixed with a denaturing loading dye [250 mM Tris-HCl pH 6.8, 5% (v/v) β-mercaptoethanol, 10% (w/v) sodium dodecyl sulfate, 30% (v/v) glycerol, 0.04% (w/v) bromophenol blue], heated for 5 min at 70°C. To eliminate intra-species variability, and to obtain the same amount of proteins from all experimental groups, all samples from one group of animals were pooled together and loaded onto a 15% polyacrylamide denaturing gel. The final protein amount was 50 μg per well. After protein separation in the gel, they were transferred on the Immun-Blot polyvinylidene difluoride membrane 0.2 μm (Bio-Rad, USA). Then, the membrane was blocked by 5% (w/v) BSA in TBST [10 mM Tris-HCl pH 7.5, 150 mM NaCl, 0.1% (v/v) Tween-20]. […] HRP was detected by Clarity Western ECL Substrate (Bio-Rad, USA) using chemiluminescent documentation system Syngene PXi-4 (UK).

MCL-1L (37 kDa) = assay: Ex vivo Western blot of tumour tissues, MCL-1L; assay type: in vivo, mice; details: pooled tumour samples
Method: as §1, §2

[5] = Hydrolytic stability by 1H NMR; assay type: physicochemical; details: 20% DMF-d7/80% D2O, after 48 h

SMILES: N.N.[Cl][Pt][Cl] [Cisplatin, cisplatin, reference compound]
- IC50 [1]: 7.6 µM
- IC50 [2]: 22 µM

SMILES: Brc1cc[n+]([Pt-2]([I])([I])[n+]2ccc(Br)c3cc[nH]c32)c2[nH]ccc12 [Complex 6, cis-[Pt(4Braza)2I2]]
- IC50 [3]: 0.4 ± 0.3 µM
- selectivity factor IC50(Hep)/IC50(cancer cell line) [3]: ~10
- logP [4]: –0.07
- p53 level in tumour tissue (p53): did not affect
- MCL-1L level in tumour tissue (MCL-1L (37 kDa)): negligible effect
- fraction of complex hydrolyzed [5]: ~10%

SMILES: Cc1cc2c(Cl)cc[n+]([Pt-2]([I])([I])[n+]3ccc(Cl)c4cc(C)[nH]c43)c2[nH]1 [Complex 8, cis-[PtI2(2Me4Claza)2]]
- IC50 [3]: 0.4 ± 0.2 µM
- selectivity factor IC50(Hep)/IC50(cancer cell line) [3]: ~24
- p53 level in tumour tissue (p53): attenuated
- MCL-1L level in tumour tissue (MCL-1L (37 kDa)): considerably increased
